± gives the standard deviation of the averaged measurements.
Assays:
Experiment in all cases: level (log10 ratio to DMSO vehicle control); higher = higher biomarker level / cell amount than vehicle control
[1] = compound: O=S(=O)(O)CCC(F)(F)C(F)(F)C(F)(F)C(F)(F)C(F)(F)C(F)(F)C(F)(F)C(F)(F)F [8:2 Fluorotelomer sulfonic acid] (in DMSO)
Method: (§1)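 BioMAP Diversity Plus panel of 12 human primary cell co-culture systems (3C, 4H, LPS, SAg, BT, BF4T, BE3C, CASM3C, HDF3CGF, KF3CT, MyoF, Mphg). Compounds were added 1 h before stimulation and left for 24 h (MyoF 48 h; BT 72 h for soluble read-outs or 6 d for IgG). Biomarkers were read by ELISA, cytotoxicity by SRB, PBMC viability and proliferation by Alamar Blue. Each well value was divided by the mean of 8 DMSO control wells on the same plate and log10 transformed; duplicate blinded samples were tested at 4 concentrations.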

[2] = compound: OCC(F)(F)C(F)(F)C(F)(F)C(F)(F)C(F)(F)C(F)(F)CO [1H,1H,8H,8H-Perfluorooctane-1,8-diol] (in DMSO)
Method: as §1

[3] = compound: O=C(O)C=C(C(F)(F)F)C(F)(F)F [3,3-Bis(trifluoromethyl)-2-propenoic acid] (in DMSO)
Method: as §1

Perfluoroundecanoic acid = compound: O=C(O)C(F)(F)C(F)(F)C(F)(F)C(F)(F)C(F)(F)C(F)(F)C(F)(F)C(F)(F)C(F)(F)C(F)(F)F [Perfluoroundecanoic acid] (in DMSO); details: 6700 nM
Method: as §1

[4] = compound: CCOC(=O)CC(=O)C(F)(F)C(F)(F)F [Ethyl pentafluoropropionyl acetate] (in DMSO)
Method: as §1

[5] = compound: OCC(F)(F)C(F)(F)C(F)(F)C(F)F [1H,1H,5H-Perfluoropentanol] (in DMSO)
Method: as §1

[6] = compound: O=C(O)CCC(F)(C(F)(F)F)C(F)(F)F [4,4-bis(Trifluoromethyl)-4-fluoropropanoic acid] (in DMSO)
Method: as §1

Row | Test System | level (log10) ([1]; 6700 nM) | level (log10) ([1]; 20000 nM) | level (log10) ([1]; 60000 nM) | level (log10) ([2]; 6700 nM) | level (log10) ([2]; 20000 nM) | level (log10) ([2]; 60000 nM) | level (log10) ([3]; 6700 nM) | level (log10) ([3]; 20000 nM) | level (log10) ([3]; 60000 nM) | level (log10) (Perfluoroundecanoic acid) | level (log10) ([4]; 6700 nM) | level (log10) ([4]; 20000 nM) | level (log10) ([4]; 60000 nM) | level (log10) ([5]; 6700 nM) | level (log10) ([5]; 20000 nM) | level (log10) ([5]; 60000 nM) | level (log10) ([6]; 6700 nM) | level (log10) ([6]; 20000 nM) | level (log10) ([6]; 60000 nM)
1 | BE3C:MMP-1 | 0.048 ± 0.024 | 0.1715 ± 0.00071 | 0.232 ± 0.027 | 0.0125 ± 0.012 | -0.0055 ± 0.013 | 0.0425 ± 0.056 | -0.066 ± 0.0099 | -0.0425 ± 0.005 | 0.0305 ± 0.073 | 0.135 ± 0.011 | -0.01 ± 0.013 | -0.023 ± 0.018 | 0.021 ± 0.0014 | -0.014 ± 0.011 | 0.029 ± 0.024 | 0.023 ± 0.03 | 0.0065 ± 0.035 | 0.0105 ± 0.059 | 0.006 ± 0.045
2 | CASM3C:CD141/Thrombomodulin | -0.0045 ± 0.029 | -0.026 ± 0.04 | -0.0265 ± 0.0035 | -0.018 ± 0.0071 | -0.02 ± 0.014 | -0.0005 ± 0.026 | 0.03 ± 0.0071 | 0.0275 ± 0.0064 | 0.026 ± 0.0028 | -0.06 ± 0.12 | -0.005 ± 0.0071 | -0.0005 ± 0.00071 | -0.0115 ± 0.018 | 0.046 | 0.018 ± 0.017 | 0.032 ± 0.023 | -0.0525 ± 0.069 | -0.032 ± 0.041 | 0.0035 ± 0.019
3 | lMphg:CCL2/MCP-1 | 0.0075 ± 0.019 | -0.019 ± 0.016 | 0.0155 ± 0.00071 | -0.017 ± 0.0071 | -0.005 ± 0.0042 | 0.008 ± 0.031 | -0.007 ± 0.0028 | -0.016 ± 0.0028 | -0.078 ± 0.061 | 0.0025 ± 0.028 | -0.023 ± 0.045 | -0.0135 ± 0.021 | 0.0125 ± 0.037 | -0.0185 ± 0.00071 | 0.008 ± 0.02 | 0.0075 ± 0.012 | -0.01 ± 0.017 | 0.0105 ± 0.0064 | 0.011 ± 0.017
4 | HDF3CGF:EGFR | -0.011 ± 0.033 | -0.0455 ± 0.03 | -0.101 ± 0.026 | 0.006 ± 0.023 | 0.001 ± 0.018 | -0.0185 ± 0.026 | -0.02 ± 0.041 | -0.039 ± 0.05 | -0.0145 ± 0.0035 | -0.162 ± 0.0014 | -0.014 ± 0.0057 | -0.018 ± 0.017 | 0.0125 ± 0.037 | -0.0465 ± 0.033 | -0.0025 ± 0.028 | 0.022 ± 0.054 | -0.05 ± 0.028 | -0.0445 ± 0.04 | -0.013 ± 0.033
5 | KF3CT:TIMP-2 | -0.033 ± 0.0042 | 0.0075 ± 0.0064 | 0.0225 ± 0.0021 | 0.0065 ± 0.042 | -0.0055 ± 0.018 | -0.006 ± 0.016 | 0.006 ± 0.048 | -0.016 ± 0.021 | 0.039 ± 0.052 | 0.0125 ± 0.012 | 0.004 ± 0.011 | -0.0105 ± 0.0078 | 0.0175 ± 0.0035 | -0.018 ± 0.013 | 0.025 ± 0.045 | 0.0285 ± 0.029 | -0.0315 ± 0.039 | -0.0015 ± 0.052 | -0.0125 ± 0.0035
6 | MyoF:alpha-SM Actin | 0.034 ± 0.02 | 0.001 ± 0.014 | -0.0125 ± 0.025 | 0.0075 ± 0.005 | 0.0035 ± 0.011 | -0.005 ± 0.0028 | -0.003 ± 0.054 | -0.01 ± 0.067 | -0.0795 ± 0.044 | -0.061 ± 0.0085 | -0.0145 ± 0.03 | -0.0235 ± 0.0078 | -0.019 ± 0.013 | -0.04 ± 0.059 | -0.0045 ± 0.018 | 0 ± 0.017 | 0.0205 ± 0.093 | 0.03 ± 0.095 | 0.0195 ± 0.079
7 | lMphg:CD40 | -0.026 ± 0.023 | -0.052 ± 0.0028 | -0.0995 ± 0.019 | -0.0015 ± 0.018 | -0.028 ± 0.013 | -0.0405 ± 0.0078 | -0.0255 ± 0.00071 | -0.0545 ± 0.0035 | -0.071 ± 0.014 | -0.008 ± 0.018 | -0.0205 ± 0.0092 | -0.0135 ± 0.0092 | 0.003 ± 0.061 | 0.0015 ± 0.023 | -0.012 ± 0.016 | 0.007 ± 0.02 | 0.0025 ± 0.016 | -0.001 ± 0.041 | -0.031 ± 0.041
8 | KF3CT:uPA | 0.007 ± 0.0042 | 0.006 ± 0.024 | 0.012 ± 0.016 | 0.0085 ± 0.0078 | -0.017 ± 0.02 | -0.0115 ± 0.011 | 0.027 ± 0.02 | 0.0275 ± 0.028 | 0.0325 ± 0.0021 | 0.0125 ± 0.018 | 0.01 ± 0.018 | 0.0095 ± 0.016 | -0.006 ± 0.023 | 0.0035 ± 0.0092 | -0.0315 ± 0.03 | 0.0375 ± 0.005 | 0.001 ± 0.0071 | -0.0145 ± 0.028 | -0.004 ± 0.023
9 | 3C:CD106/VCAM-1 | 0.002 ± 0.0014 | 0.009 ± 0.0028 | 0.019 ± 0.016 | -0.0205 ± 0.0021 | -0.018 ± 0.0042 | -0.007 ± 0.0057 | -0.0575 ± 0.03 | -0.0805 ± 0.025 | -0.157 ± 0.017 | -0.001 ± 0.044 | -0.0045 ± 0.0064 | -0.008 ± 0.0057 | -0.015 ± 0.0071 | -0.0245 ± 0.0078 | -0.012 | 0.0075 ± 0.0035 | -0.0195 ± 0.018 | -0.0215 ± 0.03 | -0.0085 ± 0.023
10 | HDF3CGF:Collagen III | 0.05 ± 0.014 | 0.0975 ± 0.0092 | 0.0145 ± 0.12 | -0.0175 ± 0.013 | -0.0195 ± 0.0092 | -0.016 ± 0.0057 | -0.0905 ± 0.012 | -0.0985 ± 0.029 | -0.0635 ± 0.069 | -0.049 ± 0.05 | -0.02 ± 0.047 | -0.0505 ± 0.023 | -0.0895 ± 0.015 | -0.0215 ± 0.036 | -0.0135 ± 0.019 | 0.037 ± 0.027 | -0.005 ± 0.04 | -0.0495 ± 0.11 | -0.0455 ± 0.04
11 | HDF3CGF:CXCL9/MIG | -0.048 ± 0.034 | -0.0575 ± 0.04 | 0.061 ± 0.034 | 0.0025 ± 0.0021 | 0.045 ± 0.011 | 0.0245 ± 0.056 | -0.006 ± 0.0028 | -0.0075 ± 0.013 | -0.0175 ± 0.015 | -0.0645 ± 0.005 | 0.001 ± 0.0042 | -0.013 ± 0.0085 | -0.0185 ± 0.005 | 0.0035 ± 0.0021 | 0.0025 ± 0.025 | -0.0105 ± 0.022 | -0.0105 ± 0.039 | -0.0215 ± 0.056 | -0.0305 ± 0.054
12 | CASM3C:CXCL8/IL-8 | 0.019 ± 0.018 | -0.0065 ± 0.012 | 0.0035 ± 0.013 | -0.007 ± 0.027 | -0.0135 ± 0.022 | 0.007 ± 0.011 | -0.0025 ± 0.0021 | -0.0045 ± 0.005 | 0.0125 ± 0.022 | 0.0005 ± 0.0021 | 0.0045 ± 0.0035 | 0 | 0.0035 ± 0.0078 | -0.0025 ± 0.021 | 0.0065 ± 0.047 | 0.015 ± 0.059 | -0.0115 ± 0.012 | -0.0135 ± 0.012 | -0.0195 ± 0.005
13 | KF3CT:CXCL9/MIG | 0.005 ± 0.017 | 0.003 ± 0.0099 | 0.01 ± 0.0057 | 0.007 ± 0.011 | 0.0025 ± 0.00071 | 0.0105 ± 0.005 | 0.0015 ± 0.005 | -0.003 ± 0.0085 | 0.006 ± 0.011 | 0.0135 ± 0.018 | 0.002 ± 0.0028 | 0.0015 ± 0.0078 | -0.0025 ± 0.0064 | -0.009 ± 0.0085 | -0.006 ± 0.017 | 0.008 ± 0.023 | 0.01 ± 0.011 | 0.0005 ± 0.0078 | 0.006 ± 0.016
14 | lMphg:CD106/VCAM-1 | -0.0355 ± 0.005 | -0.042 ± 0.0071 | -0.08 ± 0.0057 | -0.024 ± 0.041 | -0.0125 ± 0.033 | -0.003 ± 0.048 | -0.0205 ± 0.005 | -0.025 ± 0.0099 | -0.0935 ± 0.0064 | -0.004 ± 0.0057 | -0.023 ± 0.0028 | 0.013 ± 0.0028 | 0.0195 ± 0.005 | -0.0035 ± 0.021 | 0.0165 ± 0.037 | 0.0145 ± 0.018 | -0.007 ± 0.011 | 0.0005 ± 0.0092 | -0.009 ± 0.017
15 | MyoF:Decorin | 0.0555 ± 0.029 | 0.024 ± 0.03 | -0.001 ± 0.0014 | -0.006 ± 0.0085 | 0.0195 ± 0.013 | 0.0325 ± 0.016 | -0.0275 ± 0.0021 | -0.043 ± 0.024 | -0.057 ± 0.045 | -0.026 ± 0.035 | -0.0135 ± 0.026 | -0.0025 ± 0.016 | 0.023 ± 0.014 | 0 ± 0.089 | 0.029 ± 0.12 | 0.0455 ± 0.15 | -0.0215 ± 0.025 | -0.015 ± 0.044 | -0.001 ± 0.04
